pIC50: −log10 of the molar value.
Target: T1, human recombinant HDAC6 (Homo sapiens, UniProt Q9UBN7)
T1 construct: purchased Calbiochem 382180
T1 sequence (Q9UBN7 1-1215): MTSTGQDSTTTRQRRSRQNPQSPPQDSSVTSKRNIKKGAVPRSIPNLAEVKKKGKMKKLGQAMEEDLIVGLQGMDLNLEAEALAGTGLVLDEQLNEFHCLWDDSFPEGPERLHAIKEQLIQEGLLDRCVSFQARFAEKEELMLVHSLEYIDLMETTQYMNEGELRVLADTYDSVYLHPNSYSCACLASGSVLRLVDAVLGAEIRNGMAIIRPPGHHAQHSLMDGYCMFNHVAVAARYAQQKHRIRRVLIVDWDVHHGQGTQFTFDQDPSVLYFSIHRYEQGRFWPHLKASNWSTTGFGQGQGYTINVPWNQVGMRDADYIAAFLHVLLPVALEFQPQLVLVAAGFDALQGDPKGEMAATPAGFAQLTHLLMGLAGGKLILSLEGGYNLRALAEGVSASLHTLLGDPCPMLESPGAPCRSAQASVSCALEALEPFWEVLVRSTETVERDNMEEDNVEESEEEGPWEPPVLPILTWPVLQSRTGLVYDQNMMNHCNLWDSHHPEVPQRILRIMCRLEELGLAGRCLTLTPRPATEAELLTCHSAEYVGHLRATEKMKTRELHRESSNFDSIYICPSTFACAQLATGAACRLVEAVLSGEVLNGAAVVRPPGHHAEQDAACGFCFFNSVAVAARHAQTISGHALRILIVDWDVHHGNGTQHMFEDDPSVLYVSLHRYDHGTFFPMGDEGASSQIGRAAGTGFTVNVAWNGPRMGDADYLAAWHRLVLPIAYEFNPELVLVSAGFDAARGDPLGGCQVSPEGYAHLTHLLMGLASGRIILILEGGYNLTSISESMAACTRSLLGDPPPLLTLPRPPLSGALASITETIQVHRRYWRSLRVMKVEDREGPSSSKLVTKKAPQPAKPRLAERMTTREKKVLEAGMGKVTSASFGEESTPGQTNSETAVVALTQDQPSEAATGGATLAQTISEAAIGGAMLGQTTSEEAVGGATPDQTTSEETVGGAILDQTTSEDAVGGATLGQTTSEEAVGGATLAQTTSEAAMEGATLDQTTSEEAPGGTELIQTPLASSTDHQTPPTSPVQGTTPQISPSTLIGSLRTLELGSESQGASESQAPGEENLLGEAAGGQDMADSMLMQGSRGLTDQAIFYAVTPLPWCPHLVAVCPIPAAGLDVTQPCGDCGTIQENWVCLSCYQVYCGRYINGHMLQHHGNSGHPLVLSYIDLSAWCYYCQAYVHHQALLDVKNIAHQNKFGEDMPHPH
Test: HDAC6 enzyme activity inhibition assay (HDAC Fluorimetric Drug Discovery Kit)
Type: biochemical
Conditions: for HDAC6 selectivity (fold): HDAC6 over HDAC1; for pIC50: human recombinant HDAC6, same protocol as HDAC1, read-out: HDAC6
Experimental: In order to examine the HDAC6 selectivity of the compounds of formula I of the present invention by HDAC1 and HDAC6 enzymatic activity inhibition assays, an experiment was performed using a conventional substance as a control.
HDAC enzyme activity was measured using a HDAC Fluorimetric Drug Discovery Kit (BML-AK511, 516, Enzo Life Science). For the HDAC1 enzyme activity test, human recombinant HDAC1 (BML-SE456) was used as an enzyme source, and Fluor de Lys®-“SIRT1 (BNL-KI177) was used as a substrate. A 5-fold dilution of the compound was seeded into a 96-well plate, and then 0.3 μg of the enzyme and 10 μM of the substrate were added to each well of the plate and allowed to react at 30° C. for 60 minutes. Then, Fluor de Lys®-Developer II (BML-KI176) was added thereto and allowed to react for 30 minutes, after which the fluorescence value (Ex 360, Em 460) was measured using a multi-plate reader (Flexstation 3, Molecular Device). The HDAC6 enzyme was tested using human recombinant HDAC6 (382180) (Calbiochem) according to the same protocol as the HDAC1 enzyme activity test method. Based on the resulting values, each IC5, value was calculated using GraphPad Prism4.0 program.

| SMILES | HDAC6 selectivity (fold) | pIC50 |
| --- | --- | --- |
| O=C(N1CCC(F)(F)CC1)N(Cc1ccc(-c2nnc(C(F)(F)F)o2)cc1)c1ccccc1 [Compound 21377, 4,4-Difluoro-N-phenyl-N-(4-(5-(trifluoromethyl)-1,3,4-oxadiazol-2-yl)benzyl)piperidine-1-carboxamide] | 30 fold | 6.48 |
| CN1CCN(C(=O)N(Cc2ccc(-c3nnc(C(F)F)o3)cc2F)c2ccccc2)CC1 [Compound 21378, N-(4-(5-(difluoromethyl)-1,3,4-oxadiazol-2-yl)-2-fluorobenzyl)-4-methyl-N-phenylpiperazine-1-carboxamide] | 500 fold | 7.70 |
| CN1CCCN(C(=O)N(Cc2ccc(-c3nnc(C(F)(F)F)o3)cc2)c2ccccc2)CC1 [Compound 21379, 4-Methyl-N-phenyl-N-(4-(5-(trifluoromethyl)-1,3,4-oxadiazol-2-yl)benzyl)-1,4-diazepane-1-carboxamide] | 132 fold | 7.12 |
| C[C@@H]1CN(C(=O)N(Cc2ccc(-c3nnc(C(F)(F)F)o3)cc2)c2ccccc2)C[C@H](C)O1 [Compound 21380, (2S,6R)-2,6-Dimethyl-N-phenyl-N-(4-(5-(trifluoromethyl)-1,3,4-oxadiazol-2-yl)benzyl) morpholine-4-carboxamide] | 61 fold | 6.78 |
| CC(C)(C)N1CCN(C(=O)N(Cc2ccc(-c3nnc(C(F)(F)F)o3)cc2)c2ccccc2)CC1 [Compound 21381, 4-(Tert-butyl)-N-phenyl-N-(4-(5-(trifluoromethyl)-1,3,4-oxadiazol-2-yl)benzyl)piperazine-1-carboxamide] | 76 fold | 6.88 |
| CC(C)(C)N1CCN(C(=O)N(Cc2ccc(-c3nnc(C(F)(F)F)o3)cc2F)c2ccccc2)CC1 [Compound 21382, 4-(Tert-butyl)-N-(2-fluoro-4-(5-(trifluoromethyl)-1,3,4-oxadiazol-2-yl)benzyl)-N-phenylpiperazine-1-carboxamide] | 127 fold | 7.10 |
| CC(C)(C)N1CCN(C(=O)N(Cc2ccc(-c3nnc(C(F)F)o3)cc2F)c2ccccc2)CC1 [Compound 21383, 4-(Tert-butyl)-N-(4-(5-(difluoromethyl)-1,3,4-oxadiazol-2-yl)-2-fluorobenzyl)-N-phenylpiperazine-1-carboxamide] | 200 fold | 7.30 |
| O=C(N1CCN(CCO)CC1)N(Cc1ccc(-c2nnc(C(F)(F)F)o2)cc1)c1ccccc1 [Compound 21384, 4-(2-Hydroxyethyl)-N-phenyl-N-(4-(5-(trifluoromethyl)-1,3,4-oxadiazol-2-yl)benzyl)piperazine-1-carboxamide] | 127 fold | 7.10 |
| C[C@@H]1CN(C(=O)N(Cc2ccc(-c3nnc(C(F)(F)F)o3)cc2)c2ccccc2)C[C@H](C)N1 [Compound 21385, (3S,5R)-3,5-Dimethyl-N-phenyl-N-(4-(5-(trifluoromethyl)-1,3,4-oxadiazol-2-yl)benzyl)piperazine-1-carboxamide] | 175 fold | 7.24 |
| C[C@@H]1CN(C(=O)N(Cc2ccc(-c3nnc(C(F)(F)F)o3)cc2)c2ccccc2)C[C@H](C)N1C [Compound 21386, (3R,5S)-3,4,5-Trimethyl-N-phenyl-N-(4-(5-(trifluoromethyl)-1,3,4-oxadiazol-2-yl)benzyl)piperazine-1-carboxamide] | 213 fold | 7.33 |
| CC(=O)N1[C@H](C)CN(C(=O)N(Cc2ccc(-c3nnc(C(F)(F)F)o3)cc2)c2ccccc2)C[C@@H]1C [Compound 21387, (3R,5S)-4-Acetyl-3,5-dimethyl-N-phenyl-N-(4-(5-(trifluoromethyl)-1,3,4-oxadiazol-2-yl)benzyl)piperazine-1-carboxamide] | 41 fold | 6.62 |
| C[C@@H]1CN(C(=O)N(Cc2ccc(-c3nnc(C(F)(F)F)o3)cc2)c2ccccc2)C[C@H](C)N1S(C)(=O)=O [Compound 21388, (3R,5S)-3,5-Dimethyl-4-(methylsulfonyl)-N-phenyl-N-(4-(5-(trifluoromethyl)-1,3,4-oxadiazol-2-yl)benzyl)piperazine-1-carboxamide] | 42 fold | 6.62 |
| O=C(N1CCS(=O)(=O)CC1)N(Cc1ccc(-c2nnc(C(F)(F)F)o2)cc1)c1cccc(C(F)(F)F)c1 [Compound 21391, N-(4-(5-(trifluoromethyl)-1,3,4-oxadiazol-2-yl)benzyl)-N-(3-(trifluoromethyl)phenyl)thiomorpholine-4-carboxamide 1,1-dioxide] | 27 fold | 6.44 |
| O=C(N1CCS(=O)(=O)CC1)N(Cc1ccc(-c2nnc(C(F)(F)F)o2)cc1)c1cccc(F)c1 [Compound 21392, N-(3-fluorophenyl)-N-(4-(5-(trifluoromethyl)-1,3,4-oxadiazol-2-yl)benzyl)thiomorpholine-4-carboxamide 1,1-dioxide] | 65 fold | 6.82 |
| O=C(N1CCS(=O)(=O)CC1)N(Cc1ccc(-c2nnc(C(F)(F)F)o2)cc1)c1ccc(Cl)cc1 [Compound 21394, N-(4-chlorophenyl)-N-(4-(5-(trifluoromethyl)-1,3,4-oxadiazol-2-yl)benzyl)thiomorpholine-4-carboxamide 1,1-dioxide] | 56 fold | 6.75 |
| O=C(N1CCS(=O)(=O)CC1)N(Cc1ccc(-c2nnc(C(F)(F)F)o2)cc1)c1cccc(Cl)c1 [Compound 21395, N-(3-chlorophenyl)-N-(4-(5-(trifluoromethyl)-1,3,4-oxadiazol-2-yl)benzyl)thiomorpholine-4-carboxamide 1,1-dioxide] | 137 fold | 7.14 |
| CC(C)(O)CN1CCN(C(=O)N(Cc2ccc(-c3nnc(C(F)(F)F)o3)cc2)c2ccccc2)CC1 [Compound 21396, 4-(2-hydroxy-2-methylpropyl)-N-phenyl-N-(4-(5-(trifluoromethyl)-1,3,4-oxadiazol-2-yl)benzyl)piperazine-1-carboxamide] | 34 fold | 6.53 |
| CC(C)N(Cc1ccc(-c2nnc(C(F)(F)F)o2)cc1)C(=O)N1CCS(=O)(=O)CC1 [Compound 21397, N-isopropyl-N-(4-(5-(trifluoromethyl)-1,3,4-oxadiazol-2-yl)benzyl)thiomorpholine-4-carboxamide 1,1-dioxide] | 11 fold | 6.05 |
| CN(Cc1ccc(-c2nnc(C(F)(F)F)o2)cc1)C(=O)N1CCOCC1 [Compound 21398, N-methyl-N-(4-(5-(trifluoromethyl)-1,3,4-oxadiazol-2-yl)benzyl)morpholine-4-carboxamide] | 12 fold | 6.07 |
| CCN(Cc1ccc(-c2nnc(C(F)(F)F)o2)cc1)C(=O)N1CCOCC1 [Compound 21399, N-ethyl-N-(4-(5-(trifluoromethyl)-1,3,4-oxadiazol-2-yl)benzyl)morpholine-4-carboxamide] | 13 fold | 6.11 |
| CCCN(Cc1ccc(-c2nnc(C(F)(F)F)o2)cc1)C(=O)N1CCOCC1 [Compound 21400, N-propyl-N-(4-(5-(trifluoromethyl)-1,3,4-oxadiazol-2-yl)benzyl)morpholine-4-carboxamide] | 17 fold | 6.24 |

Reference: US10717716B2, “1,3,4-oxadiazole derivative compounds as histone deacetylase 6 inhibitor, and the pharmaceutical composition comprising the same” (Chong Kun Dang Pharmaceutical Corp., priority 2015, dated 2020)
